Results: patent publication US10258599B2, “Compounds for use in the prevention or treatment of cancer” (SEMMELWEIS UNIVERSITY, priority 2014, dated 2019)

Legend:
[1] = tested on: mouse lung adenocarcinoma tumors; assay: Mouse lung adenocarcinoma xenograft model in FVB/N mice; assay type: in vivo
Procedure: (§1) Mouse primary lung adenocarcinoma tumors maintained subcutaneously were utilized in the present study. Tumors with sizes of 3 mm in diameter were implanted subcutaneously in a total of 18 FVB/N female mice with a bodyweight of 25 g. From the day after tumor inoculation, 6-6 animals started receiving (−)-BPAP daily as a subcutaneous injection at a concentration of either 0.0001 mg/kg (low dose) or 0.05 mg/kg (high dose). Tumor sizes were measured twice a week using a digital caliper. Tumor volumes were calculated by the following formula: […]
(§2) Statistical analyses were made by Graphpad Prism 4.03 software. Significances of changes between control and (−)-BPAP-treated groups were assessed by using Mann-Whitney U-test. Significance was declared at the standard p<0.05 level.

[2] = tested on: catecholaminergic neurons; assay: Comparison of CAE potency
From the text: All these differences in the efficiency between BPAP and Deprenyl came together from measuring their enhancer effect on the following four enhancer-sensitive brain regulations: dopaminergic, noradrenergic, serotonergic and TMS. Using the enhancer substances as specific experimental tools, we quite unexpectedly discovered the operation of an enhancer-sensitive TMS regulation in the rat brain. As expected, the majority of the enhancer-sensitive regulations and the endogenous enhancer substances pertaining to these regulations are unknown. Enhancer-research is obviously in its pioneer stage.

Daoy HTB-186 cell line = assay: MTT proliferation assay, Daoy medulloblastoma cells; assay type: cell-based, human; conditions: for proliferation of cultured medulloblastoma cells: monotherapy, nine concentrations 10^-14 to 10^-6 M, 72 hours
Procedure: (§3) Human medulloblastoma cell line, Daoy was purchased from ATCCC, UW-228 was obtained from the courtesy of Professor Silber (Univerity of Washington, Seattle, Wash., USA).
(§4) Daoy and UW-228-2 cell lines were maintained in culture medium (each 500 ml Minimum Essential Medium Eagle, Alpha Modification (M8042, Sigma, St Louis, USA) with 50 ml FCS (Gibco), 40 mg Gentamicin (Sandoz), 5 ml sodium-pyruvate (S8636, Sigma, St Louis, USA), 5 ml non-essential-amino acid solution (M7145, Sigma, St Louis, USA), 10 ml L-glutamin (Sigma, St Louis, USA) at 37° C. in humified 5% CO2.
(§5) In each well 3×10^3 Daoy or UW-228-2 cells were seeded in 96-well plates (Sarstedt), solved in 100 μl of its own medium with 10% FCS. 24 hours after seeding, cells were treated for 72 hours by drugs solved in further 100 μl medium. First, both cell lines were treated by (−)-BPAP and (−)-deprenil in monotherapy to determine its dose-effect curves in concentration of 10^−6, 10^−7, 10^−8, 10^−9, […], 10^−11, 10^−12, 10^−13 and 10^−14 M. In combined treatment 10^−3, 3.3×10^−4, […] and 3.7×10^−5 M of temozolomide (Schering Plough, USA) or 0.04, 0.2, 1, 5 μM of Cisplatin (Ebewe Pharma, Austria) or 0.04, 0.2, 1, 5 μM of etoposide (Ebewe Pharma, Austria) or 10^−7, 10^−6, 10^−5 and 10^−4 μM (UW228-2) or 0.001, 0.005, 0.025 and 0.125 μM (Daoy) of Vincristin (Richter Gedeon, Hungary) were applied in monotherapy or combined with 10^−13 or 10^−8 M of (−)-BPAP or (−)-deprenil.
(§6) Cell proliferation was evaluated by MTT (3-(4,5-Dimethylthiazol-2-yl)-2,5-diphenyltetrazolium bromide) assay (M5655, Sigma) after 72-hour treatment by the method described in manufacturer's protocol.

[3] = tested on: isolated locus coerulei of rats; assay: Norepinephrine release from isolated locus coerulei in organ bath; design: species or system rat; conditions: released within 20 min (FIG. 18)
Procedure: In this study (−)-BPAP was given to the organ bath of the quickly removed locus coerulei of rats. Eight organs were used for the analysis of each concentration. The amount of norepinephrine released within 20 min from the tissue in the presence of different concentrations of (−)-BPAP was measured according to Knoll and Miklya (1995) (Paired Student's t-test. *P<0.01, **P<0.001.)

[4] = tested on: isolated locus coerulei of rats; conditions: Knoll et al., 1999, Miklya, Knoll B, 2002; cited from earlier work
[5] = tested on: catecholaminergic neurons; assay: Shuttle box: antagonism of tetrabenazine-induced learning deficit (conditioned avoidance reflex); assay type: in vivo, rat
Procedure: In a modified version of the shuttle box the acquisition of a two-way conditioned avoidance reflex (CAR) was analyzed during 5 consecutive days. The rat was put in a box divided inside into two parts by a barrier with a small gate in the middle, and the animal was trained to cross the barrier under the influence of a conditioned stimulus (CS, light flash). […] One trial consisted of 10 s intertrial interval, followed by 20 s CS. The last 5 s of CS overlaped the 5 s US. At each learning session, the number of CARs, EFs and intersignal reactions (IRs) are automatically counted and evaluated by multi-way ANOVA.
Tetrabenazine-treatment (1 mg/kg s.c.) depletes at least 90% of norepinephrine and dopamine from their stores in the nerve terminals of the catecholaminergic neurons in the brain stem. Due to the weak performance of the catecholaminergic brain engine, the activation of the cortical neurons remains below the level required for the acquisition of a CAR. The learning deficit caused by tetrabenazine-treatment can be antagonized by the administration of a synthetic CAE substance or an A-type MAO inhibitor, whereas selective inhibition of B-type MAO or inhibition of the reuptake of catecholamines and/or serotonin is ineffective (Knoll et al., 1992).

UW-228-2 cell line = assay: MTT proliferation assay, UW-228-2 medulloblastoma cells; assay type: cell-based, human; conditions: for proliferation of cultured medulloblastoma cells: UW-228-2, monotherapy, nine concentrations 10^-14 to 10^-6 M, 72 hours
Procedure: as §3, §4, §5, §6

[6] = tested on: mouse lung adenocarcinoma tumors; assay: Mouse lung adenocarcinoma xenograft model in Balb/c nude mice; assay type: in vivo
Procedure: as §1, §2
Next, the same experiment was repeated using 18 Balb/c nude mice to explore whether the adaptive immune system plays a role in the tumor suppressor action of (−)-BPAP.

[7] = high dose 0.05 mg/kg s.c. daily
[8] = shuttle box, 1 mg/kg tetrabenazine s.c.

Which “tumor volume versus control” value [1, 7] does the source give for CCCN[C@H](CCC)Cc1cc2ccccc2o1 [(−)-BPAP, (2R)-1-(1-benzofuran-2-yl)-N-propylpentane-2-amine] here?
The value was “did not reach statistical significance”.

What about the “tumor volume versus control” value ([1]; low dose 0.0001 mg/kg s.c. daily, from day 12 after implantation, p<0.05) of the same compound?
The value was “significant differences in tumor volume”.

What about the “potency as CAE substance relative to Deprenyl” value [2] of the same compound?
Its value is about 100 times.

What about the “effectiveness of tumor-cell proliferation inhibiting agents in combination” value (Daoy HTB-186 cell line; 10^-13 or 10^-8 M combined with temozolomide, Cisplatin, etoposide or Vincristin) of the same compound?
The value was “did not change the effectiveness”.

And the “proliferation of cultured medulloblastoma cells” value (Daoy HTB-186 cell line)?
The value was “did not inhibit the proliferation”.

What about the “proliferation of cultured medulloblastoma cells” value (Daoy HTB-186 cell line; listed as BPAP) of the same compound?
The value was “none of the applied concentrations did Deprenyl or BPAP influence the proliferation”.

And the “concentration effect curve of norepinephrine release” value [3]?
Its value is “bi-modal, bell-shaped”.

What about the “concentration range of the specific enhancer effect on noradrenergic neurons” value [4] of the same compound?
The value was “femto/picomolar”.

What about the “effect on tetrabenazine-induced learning deficit” value ([5]; 0.0001 mg/kg (FIG. 4)) of the same compound?
The value was “antagonizing the tetrabenazine-induced learning deficit”.

What about the “dose with the non-specific enhancer effect selected for the longevity study” value [5, 8] of the same compound?
The value was 50 µg/kg.

And the “optimal dose that exerted the specific enhancer effect” value [5, 8]?
Its value is 0.1 µg/kg.

What about the “very high dose range effective in antagonizing the tetrabenazine-induced learning deficit (MAO-A inhibition)” value [5, 8] of the same compound?
Its value is 2000 to 10000 µg/kg.

What about the “effectiveness of tumor-cell proliferation inhibiting agents in combination” value (UW-228-2 cell line; UW-228-2, 10^-13 or 10^-8 M combined with temozolomide, Cisplatin, etoposide or Vincristin) of the same compound?
Its value is “did not change the effectiveness”.

And the “proliferation of cultured medulloblastoma cells” value (UW-228-2 cell line)?
The value was “did not inhibit the proliferation”.

What about the “proliferation of cultured medulloblastoma cells” value (UW-228-2 cell line; listed as BPAP) of the same compound?
Its value is “none of the applied concentrations did Deprenyl or BPAP influence the proliferation”.

What about the “tumor size versus control” value [6, 7] of the same compound?
Its value is “did not cause significant changes in tumor size”.

And the “tumor growth (tumor volume) versus control” value ([6]; low dose 0.0001 mg/kg s.c. daily)?
The value was “significant inhibition of tumor growth”.
